Results taken from US20120010148A1, “COMBINATION THERAPIES USING NAP” (ALLON THERAPEUTICS INC., priority 2008, published 2012).
“Also recorded” adds a separate entry of the source.

Experiments:
[1] = system: Rat pheochromocytoma cells (PC12); assay: Serum-deprivation survival of PC12 cells, MTS viability assay; type: cell-based
Method: The survival-promoting effects of galantamine (an acetylcholine-esterase inhibitor, or AcEI), NAP, and their combinatorial treatment were assessed in cell cultures. Cell culture method was adapted from Calderon et al., J Neurosci Res 56, 620-631 (1999).
Rat pheochromocytoma cells (PC12) were grown in Dulbecco's modified Eagle's medium (DMEM) supplemented with 8% fetal calf serum, 8% horse donor serum, 2 mm L-glutamine, and 1% penicillin-streptomycin solution.
For the experiments, cells were harvested, re-suspended, and seeded in 96-well plates at a concentration of 1.5×10^4 cells/well. Cells were pretreated with NAP and Galantamine [Galantamine (0.1, 0.5, 1, 10 μM); NAP (10^−8M, 10^−1° M, 10^−12M, 10^−15M)] 3 hours prior to serum deprivation and during serum deprivation. The assay for cell viability was performed 48 hours after serum deprivation. Calibration method is described below.
Culture medium was replaced by fresh medium without serum, containing NAP and Galantamine. Cells were incubated for 48 hours and then subject to MTS viability assay.
PC12 cells were seeded and treated as mentioned above without any drugs for 24 hours, 48 hours, and 72 hours. MTS results are represented by the percentage of viable cells from the serum deprived treatment vs. control treatment.

[2] = system: TNF-α, interleukin-16 (IL-16), and IL-12 in macrophages; settings: cited from earlier work
[3] = system: peripheral blood mononuclear cells (PBMCs); settings: cited from earlier work
[4] = system: Human SH-SY5Y neuroblastoma; assay: Clozapine-induced cell death in SH-SY5Y cells, MTS assay; type: cell-based; settings: 24 hours
Excerpt: Clozapine, a widely used anti psychotic drug may be associated with increased cell mortality. It was not known, however, whether NAP ([…], SEQ ID NO:2) treatment would inhibit clozapine associated neuronal death. To address this question and validate the efficiency of using a NAP-clozapine combination drug candidate, an experimental test system in cell culture was established (Heiser et al., Journal of Psychopharmacology 21(8):851-856 (2007)). Human SH-SY5Y neuroblastoma supplemented with 15% fetal calf serum (FCS) (Beit-Haemek, Israel), 1% penicillin-streptomycin, and 1% glutamine were incubated in a 5% CO2 atmosphere. Thirty-six thousand cells/well (in a 96 well plates) were plated 24 hours prior to the clozapine or NAP treatment. Clozapine (CLZ) was obtained from Sigma Chemicals (Sigma, Israel). Thirty-six thousand cells per well (in at least 6 replicate wells) were exposed to clozapine (CLZ, 20 μg/ml) or clozapine (CLZ, 20 μg/ml)+NAP or NAP alone (10^−15M-10^−10 M) for 24 hours at 37° C. Drug and control solutions were dissolved in ethanol. Measurement of metabolic activity and survival was determined by non-radioactive cell proliferation assay (MTS) (Promega, USA) and evaluated by an ELISA-reader at 490 nm wavelength.

STOP+/− mice = assay: Object recognition and discrimination test; type: in vivo, mouse
Method: The NAP vehicle solution (termed DD), included the following ingredients (per milliliter): 7.5 mg of NaCl, 1.7 mg of citric acid monohydrate, 3 mg of disodium phosphate dihydrate, and 0.2 mg of benzalkonium chloride solution (50%) (Alcalay R N et al., Neurosci Lett, 361(1-3): 128-131 (2004)). NAP or vehicle solution (DD) was administered to mice hand-held in a semisupine position with nostrils facing the investigator. A pipette tip was used to administer 2.5 μl/nostril. The mouse was hand-held until the solution was totally absorbed (10 s). […]
The test is based on visual discrimination between two different objects in an arena of 30 cm×40 cm. […] One hour after the daily intranasal NAP treatment, or clozapine injection, each male mouse was exposed to two identical objects for 5 minutes and the time spent sniffing/touching each object was measured (first daily session). Three hours later, the mice were exposed to one familiar and one novel object for 3 minutes and the time spent sniffing/touching each object was measured again (second session, measuring visual memory). The data was analyzed using two different methods. The first method measured the time spent exploring an object, novel or familiar, and compared the two. The second method evaluated the discrimination capacity of the mice between the novel object and the familiar object using the following formula. […]

## CC[C@H](C)[C@H](NC(=O)[C@H](CO)NC(=O)[C@@H](NC(=O)[C@@H]1CCCN1C(=O)[C@H](C)NC(=O)[C@@H](N)CC(N)=O)C(C)C)C(=O)N1CCC[C@H]1C(=O)N[C@@H](CCC(N)=O)C(=O)O [NAP]
[1]; >40% cell death, compared against cultures supplemented with serum, FIG. 7
  protection against extensive cell death: Neither NAP nor galantamine protected
[1]; NAP alone, FIG. 5
  protection against serum deprivation: provided protection
[2]
  key inflammatory cytokines TNF-α, IL-16 and IL-12: downregulates
[3]
  anti-CD3-/anti-CD28-stimulated proliferation: suppressed
  expression of CD69, CD154 and IFN-γ: decreased the expression
[4]; NAP 10^−15M with clozapine 20 μg/ml, FIG. 1
  effect on clozapine induced cell death: reversed
[4]; NAP alone 10^−15M-10^−10 M, FIG. 2
  cell mortality with NAP alone: does not affect cell mortality; also recorded: did not affect cell mortality
STOP+/− mice; Example 3, STOP+/− male mice, 3 h after first session, NAP intranasal 0.5 μg/mouse/day or clozapine 10 mg/kg IP, FIG. 9
  object recognition / discrimination of novel object: ameliorated completely the cognitive impairment; also recorded: significantly beneficial
STOP+/− mice; Example 4, STOP+/− mice, NAP 0.5 microgram/mouse/day, clozapine 3 mg/kg/day, versus pooled controls, FIG. 12
  object recognition, discrimination capacity D2 (memory scores): effective to increase memory scores
